According to ChEMBL document CHEMBL1135656, “Molecular docking and 3D-QSAR studies on gag peptide analogue inhibitors interacting with human cyclophilin A” (J Med Chem, 2002):
Starred links: 1 amine or outer side, 2 acyl side, 3 side chain; linkers in the order of their positions; H or OH if unused. Non-standard residues stand in square brackets, D forms with d. Residues, ends and D or L forms follow the SMILES beside them. *: point of attachment. Desaminohistidyl = O=C(CCc1c[nH]cn1)*; X1 = c1ccc(C(CCN*)c2ccccc2)cc1; NHPhenethyl = c1ccc(CCN*)cc1; X2 = O=C(C1CCCC1N[*:1])[*:2]; Isovaleryl = CC(C)CC(=O)*; NHBn = c1ccc(CN*)cc1

Each compound was assayed against Peptidyl-prolyl cis-trans isomerase A (Homo sapiens, UniProt P62937) (assay: In vitro inhibition of human Cyclophilin A/protein interaction.).
Chain of Peptidyl-prolyl cis-trans isomerase A (P62937 whole entry): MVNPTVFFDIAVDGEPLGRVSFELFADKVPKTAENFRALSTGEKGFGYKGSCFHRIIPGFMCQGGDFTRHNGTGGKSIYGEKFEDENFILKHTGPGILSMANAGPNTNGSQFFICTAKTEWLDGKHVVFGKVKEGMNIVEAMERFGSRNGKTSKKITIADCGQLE

In order of falling IC50:
1. CC[C@H](C)[C@H](NC(=O)[C@@H]1CCCN1C(=O)CNC(=O)[C@H](C)NC(=O)CCc1cnc[nH]1)C(=O)N[C@@H](C)C(N)=O (Desaminohistidyl-AGPIA-NH2)  2600 µM
2. H-HAGPIA-OH  2000 µM
3. CC(=O)N[C@H](C(=O)N[C@@H](Cc1c[nH]cn1)C(=O)N[C@@H](C)C(=O)NCC(=O)N1CCC[C@@H]1C(=O)N[C@H](C(=O)N[C@@H](C)C(N)=O)c1ccccc1)C(C)C  970 µM
4. CC(=O)N[C@H](C(=O)N[C@@H](Cc1c[nH]cn1)C(=O)N[C@@H](C)C(=O)NCC(=O)N1CCC[C@@H]1C(=O)N[C@@H](C(=O)N[C@@H](C)C(N)=O)c1ccccc1)C(C)C  820 µM
5. CC(=O)N[C@H](C(=O)N[C@@H](Cc1c[nH]cn1)C(=O)N[C@@H](C)C(=O)NCC(=O)N1CCC[C@H]1C(=O)NC1CCCC1C(=O)N[C@@H](C)C(N)=O)C(C)C (some centres undefined) (Ac-VHAGP[X2]A-NH2)  680 µM
6. CC[C@H](C)[C@H](NC(=O)[C@@H]1CCCN1C(=O)CNC(=O)[C@H](C)NC(=O)[C@H](Cc1cnc[nH]1)NC(=O)[C@@H](NC(C)=O)C(C)C)C(=O)NCCC(c1ccccc1)c1ccccc1 (Ac-VHAGPI-X1)  365 µM
7. CC[C@H](C)[C@H](NC(=O)[C@@H]1CCCN1C(=O)CNC(=O)[C@H](C)NC(=O)[C@H](Cc1c[nH]cn1)NC(=O)[C@@H](NC(C)=O)C(C)C)C(=O)NCCc1ccccc1 (Ac-VHAGPI-NHPhenethyl)  325 µM
8. CC[C@H](C)[C@H](NC(=O)[C@@H]1CCCN1C(=O)CNC(=O)[C@H](C)NC(=O)[C@H](Cc1cnc[nH]1)NC(=O)CC(C)C)C(=O)N[C@@H](C)C(N)=O (Isovaleryl-HAGPIA-NH2)  165 µM
9. CC(C)CC(=O)N[C@@H](Cc1cnc[nH]1)C(=O)N[C@@H](C)C(=O)NCC(=O)N1CCC[C@H]1C(=O)NC1CCCC1C(=O)NCc1ccccc1 (some centres undefined) (Isovaleryl-HAGP[X2]-NHBn)  90 µM
